Assay results from US9132109B2, “Use of non-steroidal anti-inflammatory drugs by inhalation in the treatment of acute and chronic bronchitis” (MEDESTEA RESEARCH & PRODUCTION S.P.A., priority 2005, dated 2015).
Like-named read-outs stand apart in the source and are kept apart here.

What was measured:
[1] = system: patients with a diagnosis of COPD; test: Peak expiratory flow (PEF) in COPD patients treated by inhalation; assay type: in vivo, human; settings: 900 mg lysine acetylsalicylate (equivalent to 500 mg acetylsalicylic acid) twice a day by inhalation, 30 days, vs 15-day baseline; two patients; similar at all 3 daily measurements
Description: The study involved 4 patients with a diagnosis of COPD according to the ATS/ERS guidelines (B R Celli et al. Eur. Respir. J. 2004; 23: 932-46), who were smokers or former smokers (≧20 packets a year). The patients were instructed in the use of a peak expiratory flow (PEF) measuring device using a peak flowmeter, and asked to record the PEF measurements in a daily diary. The measurements were performed 3 times a day: immediately after getting up in the morning, before lunch, and at night before going to bed. At least 3 daily PEF measurements are considered a good method for the measurement of pulmonary function (C A. Holcroft et al., Chest, 2003; 124: 501-10). PEF measurement has also been used, together with other spirometric tests, to evaluate potential COPD drugs (N A. Hanania et al., Chest, 2003; 124: 834-43). The patients were suitably instructed as to how to perform the PEF measurements, and asked to record the various measurements and any symptoms, whether correlated with the disease or not, in a daily diary. […] This basic treatment was continued for 15 days, during which the PEF values were recorded; their mean value was considered as the baseline value. […]

asthma patients = settings: by inhalation, Sestini P. et al. 1999; cited from earlier work
bronchitic patients [2] = settings: cited from earlier work
bronchitic patients [3] = test: Pulmonary function and pro-inflammatory parameters in bronchitic patients after nebulised drug; assay type: in vivo, human; settings: aspirin by nebuliser
Description: The study involved 4 patients with a diagnosis of COPD according to the ATS/ERS guidelines (B R Celli et al. Eur. Respir. J. 2004; 23: 932-46), who were smokers or former smokers (≧20 packets a year). The patients were instructed in the use of a peak expiratory flow (PEF) measuring device using a peak flowmeter, and asked to record the PEF measurements in a daily diary. The measurements were performed 3 times a day: immediately after getting up in the morning, before lunch, and at night before going to bed. […] The patients were suitably instructed as to how to perform the PEF measurements, and asked to record the various measurements and any symptoms, whether correlated with the disease or not, in a daily diary. Before beginning treatment with 900 mg lysine acetylsalicylate (equivalent to 500 mg of acetylsalicylic acid) twice a day, morning and evening, administered after measurement of the corresponding PEF, the patients discontinued all pharmacological treatment except for short-acting bronchodilators in accordance with the ATS/ERS guidelines (B R Celli et al. Eur. Respir. J. 2004; 932-46) as first-line of treatment. This basic treatment was continued for 15 days, during which the PEF values were recorded; their mean value was considered as the baseline value. […]

bronchitic patients [4] = settings: indomethacin inhaler; Tamaoki et al.; cited from earlier work

| SMILES | mean increase in PEF [1] [L/min] | immediate allergen-induced bronchoconstriction (asthma patients) | sputum volume (bronchitic patients [2]; aspirin by inhalation, Inoue H et al. 1991) | pulmonary function (bronchitic patients [3]) | pulmonary pro-inflammatory parameters (bronchitic patients [3]) | variation in respiratory function (FEV1) (bronchitic patients [4]) | sputum volume (bronchitic patients [2]; indomethacin inhaler, Tamaoki J. et al. 1992) |
| --- | --- | --- | --- | --- | --- | --- | --- |
| CC(=O)Oc1ccccc1C(=O)O [lysine acetylsalicylate] | 8 to 10 |  |  |  |  |  |  |
| CC(=O)Oc1ccccc1C(=O)O [aspirin, acetylsalicylic acid] |  | inhibited | reduces the sputum volume | definite improvement | reduction |  |  |
| COc1ccc2c(c1)c(CC(=O)O)c(C)n2C(=O)c1ccc(Cl)cc1 [indomethacin] |  | ineffective |  |  |  | did not observe any significant variation | reduction in sputum volume |
